These results are taken from patent US10968217B2, “Tetrahydropyridopyrimidines for the treatment and prophylaxis of hepatitis B virus infection” (Hoffmann-La Roche Inc., priority 2016, dated 2021).

For one assay, the system named is HBsAg. Nature of the assay: HBsAg assay (CLIA of secreted HBsAg in HepG2.2.15 culture supernatant). In kind it is cell-based, HBV. Particulars: Hepatitis B virus, HepG2.2.15, read-out: IC50 (HBsAg assay).
A further assay has as its system HBV DNA. Nature of the assay: HBV DNA assay (real-time qPCR of extracellular HBV DNA, HepG2.2.15 cells). To be noted: Hepatitis B virus, 144 h, extracellular HBV DNA in supernatant, six days after treatment, read-out: IC50 (Anti HBV DNA production activity). In kind it is cell-based. On the procedure:
HepG2.2.15 cells (Acs et al. Proc Natl Acad Sci USA, 84, (1987), 4641-4), a constitutively HBV-expressing cell line were cultured in DMEM+Glutamax-I medium (Invitrogen, Carlsbad, Calif., USA), supplemented with 10% fetal bovine serum (Invitrogen) and G418 (Invitrogen) at a final concentration of 200 mg/L and maintained in 5% CO2 at 37° C.
The assay employs real-time qPCR (TaqMan) to directly measure extracellular HBV DNA copy number in the cell supernatant. HepG2.2.15 cells were plated in 96-well microtiter plates before treatment with complete medium (DMEM, Glutamax, 10% FBS, 1% Penicillin/Streptomycin, 250 μg/mL Genetycin, final DMSO concentration is 1%). Only the interior wells were utilized to reduce “edge effects” observed during cell culture, the exterior wells were filled with complete medium to help minimize sample evaporation. […]

Turning to `COc1ccc(C(=O)N2CCc3nc(-c4ccccn4)ncc3C2C)s1` (centres unmarked) [Example 58, (5-Methoxy-2-thienyl)-[5-methyl-2-(2-pyridyl)-7,8-dihydro-5H-pyrido[4,3-d]pyrimidin-6-yl]methanone], the IC50 (usually the midpoint of a concentration-inhibition curve) worked out at 0.279 µM in the assay on HBsAg and 41.9 µM in the assay with HBV DNA.
